Test results from US20110152210A1, “POLYPHENOL COMPOUNDS FOR INHIBITING PROTEASOME AND USES THEREOF” (THE ROYAL INSTITUTION FOR THE ADVANCEMENT OF …, priority 2009, published 2011).
“Also recorded” adds a separate entry of the source.

How the values were obtained:
cancer cell lines = conditions: a number of cancer cell lines; cited from earlier work
[1] = target: T1, Purified rabbit 20S proteasome (Oryctolagus cuniculus, UniProt G1T4Q9); assay: Inhibition of chymotrypsin-like activity of purified 20S proteasome; assay type: biochemical; conditions: for inhibition of proteasomal chymotryptic activity (in words): 2 h; for IC50: Suc-LLVY-AMC, 2 h at 37° C., read-out: IC50, inhibition of proteasomal chymotrypsin-like activity
T1 sequence (G1T4Q9 60-263): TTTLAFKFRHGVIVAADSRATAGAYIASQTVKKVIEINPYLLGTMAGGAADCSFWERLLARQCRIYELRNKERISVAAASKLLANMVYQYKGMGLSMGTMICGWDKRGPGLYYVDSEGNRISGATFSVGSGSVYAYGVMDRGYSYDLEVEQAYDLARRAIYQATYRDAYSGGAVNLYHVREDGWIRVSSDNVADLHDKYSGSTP
Excerpt: EGCG was used as a comparative standard. Materials. Purified rabbit 20S proteasome and fluorogenic substrate Suc-LLVY-AMC for the proteasomal chymotrypsinlike (CT-like) activity were obtained from Calbiochem Inc. (San Diego, Calif.). Fetal bovine serum (FBS) was from Tissue Culture Biologicals (Tulare, Calif.). Penicillin and streptomycin were purchased from Invitrogen Co. (Carlsbad, Calif.). RPMI 1640 medium was purchased from Invitrogen Co. (Carlsbad, Calif.). […] Inhibition of purified 20S proteasome activity by EGCG and its analogs.

[2] = tested on: human multiple myeloma ARP cells; assay: MTT assay in multiple myeloma ARP cells, alone or combined with Velcade; assay type: cell-based; conditions: 48 hrs; for effect on cell proliferation in combination with bortezomib (in words): 20 μM with varying doses of Velcade; for inhibition of cell proliferation as single agent (in words): ARP cells
Method: The cells were treated with Velcade alone or with 20 μM of compounds 5, 7 and 23 or in combination with varying doses of Velcade for 48 hrs, followed by a MTT assay.
Deep purple color indicates fully viable cells; light purple color indicates a reduced number of viable cells; and yellowish color indicates an absence of viable cells.
MTT assay. Cells were grown in a 96-well plate. Triplicate wells of cells were treated with indicated concentrations of EGCG or EGCG analogs for 24 h. After aspiration of medium, MTT (1 mg/ml) was then added to the cell cultures, followed by incubation for 3 h at 37° C. After cells were crystallized, MTT was removed and DMSO was added to dissolve the metabolized MTT product. The absorbance was then measured on a Wallac Victor3 1420 Multi-label counter at 540 nm.

## CC(=O)Oc1cc(OC(C)=O)c2c(c1)O[C@H](c1cc(OC(C)=O)c(OC(C)=O)c(OC(C)=O)c1)[C@H](OC(=O)c1cc(OC(C)=O)c(OC(C)=O)c(OC(C)=O)c1)C2 [Compound 4, (−)Epigallocatechin gallate octa acetate, reference compound]
Cancer cell lines
  growth inhibitory activity compared to EGCG (1) (in words): enhanced growth inhibitory activity
[1]
  inhibition of proteasomal chymotryptic activity (in words): none of the resulting derivatives 4, 6, 8, 17 and 22 exhibited proteasomal inhibition

## O=C(O[C@H]1Cc2ccccc2C[C@H]1OC(=O)c1cc(O)cc(O)c1)c1cc(O)cc(O)c1 [Compound 7]
[1]
  IC50: 29 µM
[2]
  effect on cell proliferation in combination with bortezomib (in words): synergistic inhibitory effect
  inhibition of cell proliferation as single agent (in words): most potent cell proliferation inhibitor

## O=C(O[C@@H]1Cc2c(O)cc(O)cc2O[C@@H]1c1cc(O)c(O)c(O)c1)c1cc(O)c(O)c(O)c1 [EGCG, (−)Epigallocatechin gallate, reference compound]
[1]
  inhibition of proteasomal chymotryptic activity (in words): potently inhibited

## CC(C)C[C@H](NC(=O)[C@H](Cc1ccccc1)NC(=O)c1cnccn1)B(O)O [bortezomib, reference compound]
[2]
  inhibition of cell proliferation as single agent (in words): reduced cell proliferation in a dose-dependent manner

## CC(=O)Oc1cc(OC(C)=O)cc(C(=O)O[C@H]2Cc3ccccc3C[C@H]2OC(C)=O)c1 [Compound 22]
[1]
  inhibition of proteasomal chymotryptic activity (in words): none of the resulting derivatives 4, 6, 8, 17 and 22 exhibited proteasomal inhibition

## CC(=O)Oc1cc(C(=O)O[C@H]2Cc3ccccc3C[C@H]2OC(C)=O)cc(OC(C)=O)c1OC(C)=O [Compound 17]
[1]
  inhibition of proteasomal chymotryptic activity (in words): none of the resulting derivatives 4, 6, 8, 17 and 22 exhibited proteasomal inhibition

## O=C(O[C@H]1Cc2ccccc2C[C@H]1OC(=O)c1cc(O)c(O)c(O)c1)c1cc(O)c(O)c(O)c1 [Compound 5]
[1]
  IC50: 19 µM
[2]
  effect on cell proliferation in combination with bortezomib (in words): interfered with; also recorded: partially block the inhibitory effect of bortezomib
